Reference: patent EP1953147A1, “HETEROCYCLIC COMPOUND AND MEDICINAL APPLICATION THEREOF” (priority 2005, dated 2007)
Where a name gives a salt, the structure may show the parent alone.

Test system: ΔG/SEAP/HCV E1E2
Experiment: Effect of test substance on cell infection with HCV pseudotype virus (SEAP reporter assay in HepG2 cells)
Assay type: cell-based
Settings: Hepatitis C virus

SMILES	IC50
COc1cc(OC)cc(-c2nn(-c3cc(NCC(=O)OC(C)(C)C)ccc3C(F)(F)F)c(=O)c3c2CCC3)c1 [Example 94, {3-[4-(3,5-dimethoxy-phenyl)-1-oxo-1,5,6,7-tetrahydro-cyclopenta[d]pyridazin-2-yl]-4-trifluoromethyl-phenylamino}-acetic acid tert-butyl ester]	100 to 10000 nM
Cc1cc(C)cc(-c2nn(-c3cc(N4CC[C@H](O)C4)ccc3C(F)(F)F)c(=O)c3c2CCN3)c1 [Example 11, 4-(3,5-dimethyl-phenyl)-6-[5-((S)-3-hydroxy-pyrrolidin-1-yl)-2-trifluoromethyl-phenyl]-1,2,3,6-tetrahydro-pyrrolo[2,3-d]pyridazin-7-one]	< 100 nM
CCN1CCc2c(-c3cc(OC)cc(OC)c3)nn(-c3cc(N4CC[C@H](O)C4)ccc3C(F)(F)F)c(=O)c21 [Example 55, 4-(3,5-dimethoxy-phenyl)-1-ethyl-6-[5-((S)-3-hydroxy-pyrrolidin-1-yl)-2-trifluoromethyl-phenyl]-1,2,3,6-tetrahydro-pyrrolo[2,3-d]pyridazin-7-one]	< 100 nM
CCN(C)c1ccc(C(F)(F)F)c(-n2nc(-c3cc(OC)cc(OC)c3)c3c(c2=O)CCC3)c1 [Example 68, 4-(3,5-dimethoxy-phenyl)-2-[5-(ethyl-methylamino)-2-trifluoromethyl-phenyl]-2,5,6,7-tetrahydro-cyclopenta[d]pyridazin-1-one]	< 100 nM
COc1cc(OC)cc(-c2nn(-c3cc(N4CC[C@@H](O)C4)ccc3C(F)(F)F)c(=O)c3c2CCN3C(=O)OC(C)(C)C)c1 [Example 59, 4-(3,5-dimethoxy-phenyl)-6-[5-((R)-3-hydroxy-pyrrolidin-1-yl)-2-trifluoromethyl-phenyl]-7-oxo-2,3,6,7-tetrahydro-pyrrolo[2,3-d]pyridazine-1-carboxylic acid tert-butyl ester]	< 100 nM
COc1cc(OC)cc(-c2nn(-c3cc(N4CCC(O)C4)ccc3C(F)(F)F)c(=O)c3c2CCN3)c1 (stereo not drawn) [Example 18, 4-(3,5-dimethoxyphenyl)-6-[5-(3-hydroxy-pyrrolidin-1-yl)-2-trifluoromethyl-phenyl]-1,2,3,6-tetrahydro-pyrrolo[2,3-d]pyridazin-7-one]	< 100 nM
COc1cc(OC)cc(-c2nn(-c3ccccc3Cl)c(=O)c3c2CCC3)c1 [Example 86, 2-(2-chloro-phenyl)-4-(3,5-dimethoxy-phenyl)-2,5,6,7-tetrahydro-cyclopenta[d]pyridazin-1-one]	100 to 10000 nM
COc1cc(OC)cc(-c2nn(-c3cc(N(C)CCO)ccc3C(F)(F)F)c(=O)c3c2CCC3)c1 [Example 92, 4-(3,5-dimethoxy-phenyl)-2-{5-[(2-hydroxy-ethyl)-methyl-amino]-2-trifluoromethyl-phenyl}-2,5,6,7-tetrahydro-cyclopenta[d]pyridazin-1-one]	< 100 nM
CCCCCCNC(=O)CN1CCc2c(-c3cc(OC)cc(OC)c3)nn(-c3cc(N4CC[C@H](O)C4)ccc3C(F)(F)F)c(=O)c21 [Example 35, 2-{4-(3,5-dimethoxy-phenyl)-6-[5-((S)-3-hydroxy-pyrrolidin-1-yl)-2-trifluoromethyl-phenyl]-7-oxo-2,3,6,7-tetrahydro-pyrrolo[2,3-d]pyridazin-1-yl}-N-hexyl-acetamide]	< 100 nM
COc1cc(OC)cc(-c2nn(-c3cc(NCCC(=O)N(C)C)ccc3C(F)(F)F)c(=O)c3c2CCC3)c1 [Example 139, 3-{3-[4-(3,5-dimethoxy-phenyl)-1-oxo-1,5,6,7-tetrahydro-cyclopenta[d]pyridazin-2-yl]-4-trifluoromethyl-phenylamino}-N,N-dimethyl-propionamide]	< 100 nM
O=c1c2c(c(C3CCCC3)nn1-c1cc(N3CC[C@H](O)C3)ccc1C(F)(F)F)CCC2 [Example 1-19, 4-cyclopentyl-2-[5-((S)-3-hydroxy-pyrrolidin-1-yl)-2-trifluoromethyl-phenyl]-2,5,6,7-tetrahydro-cyclopenta[d]pyridazin-1-one]	100 to 10000 nM
COc1cc(OC)cc(-c2nn(-c3cccc(N4CC[C@H](O)C4)n3)c(=O)c3c2CCC3)c1 [Example 1-7, 4-(3,5-dimethoxy-phenyl)-2-[6-((S)-3-hydroxy-pyrrolidin-1-yl)-pyridin-2-yl]-2,5,6,7-tetrahydro-cyclopenta[d]pyridazin-1-one]	100 to 10000 nM
CCOC(=O)N1CCc2c(-c3cc(OC)cc(OC)c3)nn(-c3cc(N4CC[C@H](O)C4)ccc3C(F)(F)F)c(=O)c21 [Example 60, 4-(3,5-dimethoxy-phenyl)-6-[5-((S)-3-hydroxy-pyrrolidin-1-yl)-2-trifluoromethyl-phenyl]-7-oxo-2,3,6,7-tetrahydro-pyrrolo[2,3-d]pyridazine-1-carboxylic acid ethyl ester]	< 100 nM
COc1cc(OC)cc(-c2nn(-c3cc(CCCO)ccc3C(F)(F)F)c(=O)c3c2CCC3)c1 [Example 121, 4-(3,5-dimethoxy-phenyl)-2-[5-(3-hydroxy-propyl)-2-trifluoromethyl-phenyl]-2,5,6,7-tetrahydro-cyclopenta[d]pyridazin-1-one]	< 100 nM
CNC(=O)c1ccc(C(F)(F)F)c(-n2nc(-c3cc(OC)cc(OC)c3)c3c(c2=O)CCC3)c1 [Example 1-11, 3-[4-(3,5-dimethoxy-phenyl)-1-oxo-1,5,6,7-tetrahydro-cyclopenta[d]pyridazin-2-yl]-N-methyl-4-trifluoromethyl-benzamide]	< 100 nM
COc1cc(OC)cc(-c2nn(-c3ccc(N(C)C)cc3C(F)(F)F)c(=O)c3c2CCC3)c1 [Example 108, 4-(3,5-dimethoxy-phenyl)-2-(4-dimethylamino-2-trifluoromethyl-phenyl)-2,5,6,7-tetrahydro-cyclopenta[d]pyridazin-1-one]	100 to 10000 nM
NC(=O)c1cccc(-c2nn(-c3cc(N4CC[C@H](O)C4)ccc3C(F)(F)F)c(=O)c3c2CCC3)c1 [Example 98, 3-{3-[5-((S)-3-hydroxy-pyrrolidin-1-yl)-2-trifluoromethyl-phenyl]-4-oxo-4,5,6,7-tetrahydro-3H-cyclopenta[d]pyridazin-1-yl}-benzamide]	100 to 10000 nM
O=c1c2c(c(C3=CCCCC3)nn1-c1cc(N3CC[C@H](O)C3)ccc1C(F)(F)F)CCC2 [Example 113, 4-cyclohex-1-enyl-2-[5-((S)-3-hydroxy-pyrrolidin-1-yl)-2-trifluoromethyl-phenyl]-2,5,6,7-tetrahydro-cyclopenta[d]pyridazin-1-one]	100 to 10000 nM
COc1cc(C)cc(-c2nn(-c3cc(-c4cccnn4)ccc3C(F)(F)F)c(=O)c3c2CCN3)c1 [Example 13, 4-(3-methoxy-5-methyl-phenyl)-6-(5-pyridazin-3-yl-2-trifluoromethyl-phenyl)-1,2,3,6-tetrahydro-pyrrolo[2,3-d]pyridazin-7-one]	< 100 nM
O=c1c2c(c(C3=CCCC3)nn1-c1cc(N3CC[C@H](O)C3)ccc1C(F)(F)F)CCC2 [Example 1-18, 4-(cyclopent-1-enyl)-2-[5-((S)-3-hydroxy-pyrrolidin-1-yl)-2-trifluoromethyl-phenyl]-2,5,6,7-tetrahydro-cyclopenta[d]pyridazin-1-one]	100 to 10000 nM
CNCCNc1ccc(C(F)(F)F)c(-n2nc(-c3cc(OC)cc(OC)c3)c3c(c2=O)CCC3)c1 [Example 157, 4-(3,5-dimethoxy-phenyl)-2-[5-(2-methylamino-ethylamino)-2-trifluoromethyl-phenyl]-2,5,6,7-tetrahydro-cyclopenta[d]pyridazin-1-one hydrochloride]	100 to 10000 nM
